The target in assay [1] is T1, Acetylcholinesterase (Electrophorus electricus, UniProt O42275).
Description: Inhibition of electric eel AChE using acetylthiocholine iodide as substrate after 15 mins by Ellman's method
The target of assay [2] is T2, Amine oxidase [flavin-containing] B (Rattus norvegicus, UniProt P19643).
T2 sequence (P19643 whole entry): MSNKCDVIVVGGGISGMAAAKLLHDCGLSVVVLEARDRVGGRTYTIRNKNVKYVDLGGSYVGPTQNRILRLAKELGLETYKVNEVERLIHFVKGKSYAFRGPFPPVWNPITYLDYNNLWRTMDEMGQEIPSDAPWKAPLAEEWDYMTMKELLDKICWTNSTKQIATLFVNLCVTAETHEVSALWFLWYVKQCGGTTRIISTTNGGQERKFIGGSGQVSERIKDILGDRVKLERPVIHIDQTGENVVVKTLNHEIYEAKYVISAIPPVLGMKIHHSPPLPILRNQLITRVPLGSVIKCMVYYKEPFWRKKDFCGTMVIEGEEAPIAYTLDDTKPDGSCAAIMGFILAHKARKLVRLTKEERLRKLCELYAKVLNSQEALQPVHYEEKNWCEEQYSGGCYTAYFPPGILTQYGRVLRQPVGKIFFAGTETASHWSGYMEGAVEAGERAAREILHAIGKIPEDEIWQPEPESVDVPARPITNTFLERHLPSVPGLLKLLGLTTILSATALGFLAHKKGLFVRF
Kind of assay: biochemical.
Description: Inhibition of mitochondrial MAO-B in rat liver homogenates using [14C]-phenylethylamine as substrate preincubated for 30 mins by liquid scintillation counting

The target of assay [3] is T3, Butyrylcholinesterase (Equus caballus, UniProt Q9N1N9).
T3 sequence (Q9N1N9 whole entry): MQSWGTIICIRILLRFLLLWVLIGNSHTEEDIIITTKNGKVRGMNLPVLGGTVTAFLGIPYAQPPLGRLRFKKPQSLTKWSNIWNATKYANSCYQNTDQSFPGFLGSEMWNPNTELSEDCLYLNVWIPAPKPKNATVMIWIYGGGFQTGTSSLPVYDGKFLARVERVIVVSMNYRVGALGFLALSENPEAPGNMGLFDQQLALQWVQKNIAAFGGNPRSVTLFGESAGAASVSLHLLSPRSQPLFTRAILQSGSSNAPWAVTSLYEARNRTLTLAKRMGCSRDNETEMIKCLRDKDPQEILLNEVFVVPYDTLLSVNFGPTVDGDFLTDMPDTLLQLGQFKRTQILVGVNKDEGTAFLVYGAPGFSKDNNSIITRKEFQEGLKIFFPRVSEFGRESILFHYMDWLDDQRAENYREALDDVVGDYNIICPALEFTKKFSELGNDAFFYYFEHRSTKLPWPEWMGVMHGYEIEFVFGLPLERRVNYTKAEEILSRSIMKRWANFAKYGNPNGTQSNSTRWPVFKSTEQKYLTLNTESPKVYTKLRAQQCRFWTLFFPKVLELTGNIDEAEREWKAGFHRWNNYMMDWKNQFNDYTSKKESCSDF
Description: Inhibition of equine serum BChE using butyrylthiocholine iodide as substrate after 15 mins by Ellman's method
In assay [4] the target is T4, Amine oxidase [flavin-containing] A (Rattus norvegicus, UniProt P21396).
T4 sequence (P21396 whole entry): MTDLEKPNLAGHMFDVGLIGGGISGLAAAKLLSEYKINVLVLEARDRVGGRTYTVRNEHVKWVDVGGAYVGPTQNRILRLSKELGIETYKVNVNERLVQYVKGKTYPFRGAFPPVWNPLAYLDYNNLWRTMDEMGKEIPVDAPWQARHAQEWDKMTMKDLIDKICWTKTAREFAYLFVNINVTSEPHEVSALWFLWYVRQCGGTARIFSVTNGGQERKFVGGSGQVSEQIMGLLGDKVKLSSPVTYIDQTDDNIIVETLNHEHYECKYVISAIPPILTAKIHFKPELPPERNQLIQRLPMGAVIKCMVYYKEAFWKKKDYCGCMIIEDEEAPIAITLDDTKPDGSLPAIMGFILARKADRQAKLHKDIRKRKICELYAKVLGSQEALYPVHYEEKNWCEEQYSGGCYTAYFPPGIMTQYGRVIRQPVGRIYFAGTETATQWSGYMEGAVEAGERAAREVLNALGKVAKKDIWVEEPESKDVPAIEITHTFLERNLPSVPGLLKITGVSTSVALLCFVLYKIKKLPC
Kind of assay: biochemical.
Description: Inhibition of mitochondrial MAO-A in rat liver homogenates using [14C]-(5-hydroxy-triptamine) as substrate preincubated for 30 mins by liquid scintillation counting

The target in assay [5] is Cholinesterase (Homo sapiens, UniProt P06276). Kind of assay: Inhibition of human serum BuChE using butyrylthiocholine iodide as substrate by Ellman's method.
Chain of Cholinesterase (P06276 whole entry): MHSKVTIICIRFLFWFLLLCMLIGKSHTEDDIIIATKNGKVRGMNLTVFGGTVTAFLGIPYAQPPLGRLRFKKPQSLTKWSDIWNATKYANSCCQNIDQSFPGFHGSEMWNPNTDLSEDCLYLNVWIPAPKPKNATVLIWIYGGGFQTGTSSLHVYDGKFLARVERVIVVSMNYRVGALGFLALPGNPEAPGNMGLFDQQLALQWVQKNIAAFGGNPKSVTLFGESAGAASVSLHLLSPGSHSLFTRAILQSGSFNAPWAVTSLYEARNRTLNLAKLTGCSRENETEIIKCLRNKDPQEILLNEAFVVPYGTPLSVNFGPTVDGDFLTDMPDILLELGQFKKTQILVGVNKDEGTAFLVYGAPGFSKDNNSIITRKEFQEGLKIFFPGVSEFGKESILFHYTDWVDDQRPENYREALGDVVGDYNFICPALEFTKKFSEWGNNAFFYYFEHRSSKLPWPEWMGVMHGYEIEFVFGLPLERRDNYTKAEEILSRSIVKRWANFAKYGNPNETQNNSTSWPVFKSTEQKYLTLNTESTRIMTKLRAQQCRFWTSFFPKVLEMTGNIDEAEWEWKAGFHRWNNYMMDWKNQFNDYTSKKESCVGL
Assay [6] addresses Acetylcholinesterase (Homo sapiens, UniProt P22303). As to the kind of experiment: Inhibition of human recombinant AChE using acetylthiocholine iodide as substrate by Ellman's method. (Ellman's reagent forms a yellow product with free thiols.)
Assay [7] concerns the target T1, Acetylcholinesterase. Kind of assay: Non-competitive inhibition of electric eel AChE using acetylthiocholine as substrate by Lineweaver-Burk plot analysis.
The target of assay [8] is T3, Butyrylcholinesterase. Kind of assay: Competitive inhibition of equine serum BChE using acetylthiocholine as substrate by Lineweaver-Burk plot analysis.

Each structure is given as a SMILES string. Bounds are passed on as bounds.

T1 sequence (O42275 whole entry): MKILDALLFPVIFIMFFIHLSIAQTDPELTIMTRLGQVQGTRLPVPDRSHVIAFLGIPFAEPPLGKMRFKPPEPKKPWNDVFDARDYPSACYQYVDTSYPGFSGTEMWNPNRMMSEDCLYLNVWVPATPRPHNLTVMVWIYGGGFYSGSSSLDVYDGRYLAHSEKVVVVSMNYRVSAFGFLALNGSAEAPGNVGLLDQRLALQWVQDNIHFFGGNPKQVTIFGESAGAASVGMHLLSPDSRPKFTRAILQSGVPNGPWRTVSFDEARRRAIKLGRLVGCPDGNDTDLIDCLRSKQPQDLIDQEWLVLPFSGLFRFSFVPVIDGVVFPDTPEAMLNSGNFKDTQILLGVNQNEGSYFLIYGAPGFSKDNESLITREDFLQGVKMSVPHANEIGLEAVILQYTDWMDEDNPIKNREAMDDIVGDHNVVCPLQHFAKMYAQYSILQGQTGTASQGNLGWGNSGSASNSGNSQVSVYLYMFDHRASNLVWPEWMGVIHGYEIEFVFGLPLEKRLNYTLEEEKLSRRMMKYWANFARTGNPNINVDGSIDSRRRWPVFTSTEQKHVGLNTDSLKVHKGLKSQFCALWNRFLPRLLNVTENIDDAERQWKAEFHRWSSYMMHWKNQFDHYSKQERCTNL
Chain of Acetylcholinesterase (Homo sapiens, UniProt P22303) (P22303 whole entry): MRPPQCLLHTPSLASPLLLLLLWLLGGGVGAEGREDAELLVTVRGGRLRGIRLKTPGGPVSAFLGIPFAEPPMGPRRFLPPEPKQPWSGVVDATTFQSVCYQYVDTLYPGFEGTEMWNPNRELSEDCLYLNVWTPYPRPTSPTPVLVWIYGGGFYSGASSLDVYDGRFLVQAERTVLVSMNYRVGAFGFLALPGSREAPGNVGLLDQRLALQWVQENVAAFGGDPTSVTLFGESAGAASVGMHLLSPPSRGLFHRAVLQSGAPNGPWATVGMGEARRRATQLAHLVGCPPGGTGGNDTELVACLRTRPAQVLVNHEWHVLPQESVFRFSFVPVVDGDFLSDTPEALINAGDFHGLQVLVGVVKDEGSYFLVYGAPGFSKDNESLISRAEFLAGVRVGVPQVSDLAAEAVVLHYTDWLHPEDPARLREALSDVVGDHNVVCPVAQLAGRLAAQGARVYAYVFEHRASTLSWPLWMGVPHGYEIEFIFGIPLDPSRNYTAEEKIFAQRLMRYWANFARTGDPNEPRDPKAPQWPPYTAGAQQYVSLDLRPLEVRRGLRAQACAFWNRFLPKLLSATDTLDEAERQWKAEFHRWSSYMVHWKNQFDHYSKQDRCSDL

For orientation: IC50 means the midpoint of a concentration-inhibition curve. As for `C#CCNCc1cc2cc(OCc3ccccc3)ccc2[nH]1`, the IC50 in assay [1] was over 100 µM; in assay [2], 0.022 µM; in assay [3], 43 µM.
As to `C#CCN1CCc2nc3nc(N4CCCCC4)c(C#N)cc3c(N)c2C1`, the IC50 in assay [4] was determined as 330 µM; in assay [1], 0.066 µM; in assay [2] it was 296 µM; in assay [3], 10 µM.
In the case of `C=C=CCN(C)Cc1cc2cc(OCc3ccccc3)ccc2n1C`, the IC50 in assay [1] was over 100 µM; in assay [3], 14 µM.
Turning to `C#CCN1CCc2nc3ccccc3c(N)c2C1`, the IC50 in assay [4] was 241 µM; in assay [1], 1.5 µM; in assay [2] it was 617 µM; in assay [3], 6.6 µM.
As to `C#CCN1CCc2nc3nc(Cl)c(C#N)cc3c(N)c2C1`, the concentration for half-maximal inhibition (IC50) in assay [4] is 1050 µM; in assay [1], 1.4 µM; in assay [2], 660 µM; in assay [3], over 100 µM.
Take `CNCc1cc2cc(OCc3ccccc3)ccc2n1C`: the IC50 in assay [4] is 99.3 µM; in assay [1], over 100 µM; in assay [2], 44.1 µM; in assay [3], 11 µM.
`C#CCN1CCc2nc3nc(OC)c(C#N)cc3c(N)c2C1`: the 50% inhibitory concentration (IC50) in assay [4] was 495 µM; in assay [1], 0.54 µM; in assay [2] it was over 100 µM; in assay [3], over 100 µM.
In general, Ki refers to a dissociation constant, usually derived from enzyme kinetics or from competition with a known ligand. In the case of `C#CCN1CCc2nc3nc(N4CCCC4)c(C#N)cc3c(N)c2C1`, the IC50 in assay [4] is 618 µM; in assay [1], 0.025 µM; in assay [5], 82 µM; in assay [6] it was 0.65 µM; in assay [2], 357 µM; in assay [3], 27 µM. In assay [7], this compound displayed a Ki of 0.065 µM.
Turning to `C#CCN(C)Cc1cc2cc(OCc3ccccc3)ccc2[nH]1`, the IC50 was over 100 µM in assay [1] and 22 µM in assay [3].
On to `C#CCN(C)Cc1cc2cc(OCc3ccccc3)ccc2n1C`, for which the IC50 in assay [1] and in assay [3] was over 100 µM throughout.
For the compound `CC#CCN(C)Cc1cc2cc(OCc3ccccc3)ccc2[nH]1`, the results for the IC50 in assay [1] and in assay [3] were over 100 µM and 7 µM, respectively. For the same compound, in assay [8], the affinity corresponds to a Ki of 7.1 µM.
For `CC#CCN(C)Cc1cc2cc(OCc3ccccc3)ccc2n1C`, the IC50 in assay [1] and in assay [3] was over 100 µM in each case.
For the compound `C#CCN1CCc2nc3nc(N(C)C)c(C#N)cc3c(N)c2C1`, the IC50 in assay [4] is 1000 µM; in assay [1] it was 0.029 µM; in assay [2], 281 µM; in assay [3] it was over 100 µM.

The values are drawn from ChEMBL document CHEMBL2021889, “Multipotent MAO and cholinesterase inhibitors for the treatment of Alzheimer's disease: synthesis, pharmacological analysis and molecular modeling of heterocyclic substituted alkyl and cycloalkyl propargyl amine” (Eur J Med Chem, 2012).
